Each compound was assayed against DP IV (Homo sapiens, UniProt P27487) (assay: DP IV inhibition IC50, parallel-synthesis compounds tested directly following synthesis (without purification)). Conditions: DP IV inhibition; compounds of formula (Ib) from parallel synthesis, tested directly following synthesis (without purification); read-out: IC50.
Type: biochemical
Design: IC50 DP4; other: tested directly following parallel synthesis, without purification; compounds of formula (Ib) from parallel synthesis, tested directly following synthesis
Protocol: Compounds were immediately tested regarding their activity as DP IV inhibitors.
Substances are screened for inhibition of dipeptidyl peptidase (DP IV) by their ability to inhibit the hydrolysis of the DP IV specific substrate Glycyl-Prolyl-4-Nitroanilide (Gly-Pro-pNA). All compounds are diluted in DMSO and IC50 will be determined with 11 serial dilutions (1:2) starting with an final concentration of 100 μM. The final DMSO concentration in the assay is 5% (v/v). The method was automated using a Tecan Genesis Freedom liquid handler and a Genius Pro (Tecan) microplate reader.
DP IV from porcine kidney (pDP IV) or recombinant human DP IV (rhDP IV) is diluted in HEPES buffer to a final activity of approximately 40-50 μU*ml^−1. The DP IV is stored in a cooling rack (4° C.) on the liquid handler.
The assay may becarried out at room temperature using Freedom liquid handler connected with a Genios Pro microplate reader. Each sample is measured in duplicate. Each sample stock solution is prediluted with DMSO in a ratio of 1:5 in a polypropylen 96-well plate. From this predilution 10 serial (1:2) dilutions in DMSO are prepared. 13.5 μl of the 11 DMSO dilutions and DMSO alone are transferred to the measurement microplate (duplicates) and 86.5 μl water, 100 μl HEPES buffer and 50 μl substrate solution are added to each well. The enzymatic reaction is started by addition of 20 μl enzyme solution to each well, and then the microplate is immediately transferred to the microplate reader.
After short mixing (20 s) the release of 4-Nitroanilin (pNA) is monitored at 405 nm for 30 cycles (approx. 18 min).
Post assay calculations are done by the Magellan (Tecan) and Graphit Software. The linear slopes are calculated for each well and averaged for the duplicates. The residue activities are calculated in relation to a sample containing only solvent instead of inhibitor and expressed in %. Residue activities are plotted against the log of inhibitor concentrations and IC50 is calculated by an 4-parameter fitting ranging from 0 to 100%.

In order of falling IC50:
1. CC(N)c1c(-c2ccc(Cl)cc2Cl)ncn1CCN1CCOCC1 (stereo not drawn) [118b, 1-[5-(2,4-Dichloro-phenyl)-3-(2-morpholin-4-yl-ethyl)-3H-imidazol-4-yl]-ethylamine]  49.6 µM
2. CCCCCCn1cnc(-c2ccc(Cl)cc2Cl)c1C(C)N (stereo not drawn) [61b, 1-[5-(2,4-Dichloro-phenyl)-3-hexyl-3H-imidazol-4-yl]-ethylamine]  40.6 µM
3. CC(C)CCCCCCn1cnc(-c2ccc(Cl)cc2Cl)c1C(C)N (stereo not drawn) [51b, 1-[5-(2,4-Dichloro-phenyl)-3-(7-methyl-octyl)-3H-imidazol-4-yl]-ethylamine]  37.9 µM
4. CC(N)c1c(-c2ccc(Cl)cc2Cl)ncn1CCCN1CCCC1=O (stereo not drawn) [22b, 1-{3-[5-(1-Amino-ethyl)-4-(2,4-dichloro-phenyl)-imidazol-1-yl]-propyl}-pyrrolidin-2-one]  30.7 µM
5. CC(N)c1c(-c2ccc(Cl)cc2Cl)ncn1Cc1ccc(F)c(F)c1 (stereo not drawn) [68b, 1-[5-(2,4-Dichloro-phenyl)-3-(3,4-difluoro-benzyl)-3H-imidazol-4-yl]-ethylamine]  26.2 µM
6. NCc1c(-c2ccc(Cl)cc2Cl)ncn1CCc1ccccn1 [85b, C-[5-(2,4-Dichloro-phenyl)-3-(2-pyridin-2-yl-ethyl)-3H-imidazol-4-yl]-methylamine]  24.4 µM
7. NCc1c(-c2ccc(Cl)cc2Cl)ncn1Cc1ccc(-c2ccccc2)cc1 [75b, C-[3-Biphenyl-4-ylmethyl-5-(2,4-dichloro-phenyl)-3H-imidazol-4-yl]-methylamine]  23.5 µM
8. Cc1cnc(Cn2cnc(-c3ccc(Cl)cc3Cl)c2CN)cn1 [27b, C-[5-(2,4-Dichloro-phenyl)-3-(5-methyl-pyrazin-2-ylmethyl)-3H-imidazol-4-yl]-methylamine]  19.9 µM
9. COc1ccc(Cn2cnc(-c3ccc(Cl)cc3Cl)c2CN)cc1OC [5b, C-[5-(2,4-Dichloro-phenyl)-3-(3,4-dimethoxy-benzyl)-3H-imidazol-4-yl]-methylamine]  19.9 µM
10. CCNCCn1cnc(-c2ccc(Cl)cc2Cl)c1CN [69b, {2-[5-Aminomethyl-4-(2,4-dichloro-phenyl)-imidazol-1-yl]-ethyl}-ethyl-amine]  19 µM
11. CCCn1cnc(-c2ccc(Cl)cc2Cl)c1CN [86b, C-[5-(2,4-Dichloro-phenyl)-3-propyl-3H-imidazol-4-yl]-methylamine]  17.2 µM
12. NCCCc1c(-c2ccc(Cl)cc2Cl)ncn1CCc1ccccc1Cl [90b, 3-[3-[2-(2-Chloro-phenyl)-ethyl]-5-(2,4-dichloro-phenyl)-3H-imidazol-4-yl]-propylamine]  14.5 µM
13. CC(N)c1c(-c2ccc(Cl)cc2Cl)ncn1Cc1ccccn1 (stereo not drawn) [96b, 1-[5-(2,4-Dichloro-phenyl)-3-pyridin-2-ylmethyl-3H-imidazol-4-yl]-ethylamine]  14.5 µM
14. NCc1c(-c2ccc(Cl)cc2Cl)ncn1CCc1ccc(Br)cc1 [49b, C-[3-[2-(4-Bromo-phenyl)-ethyl]-5-(2,4-dichloro-phenyl)-3H-imidazol-4-yl]-methylamine]  9.1 µM
15. NCc1c(-c2ccc(Cl)cc2Cl)ncn1CCNc1ccc([N+](=O)[O-])cn1 [20b, {2-[5-Aminomethyl-4-(2,4-dichloro-phenyl)-imidazol-1-yl]-ethyl}-(5-nitro-pyridin-2-yl)-amine]  8.2 µM
16. NCc1c(-c2ccc(Cl)cc2Cl)ncn1CCCCc1ccccc1 [42b, C-[5-(2,4-Dichloro-phenyl)-3-(4-phenyl-butyl)-3H-imidazol-4-yl]-methylamine]  7.3 µM
17. NCc1c(-c2ccc(Cl)cc2Cl)ncn1CCc1cccc(Cl)c1 [52b, C-[3-[2-(3-Chloro-phenyl)-ethyl]-5-(2,4-dichloro-phenyl)-3H-imidazol-4-yl]-methylamine]  5.5 µM
18. NCc1c(-c2ccc(Cl)cc2Cl)ncn1Cc1ccc(F)cc1F [Example 54b, C-[5-(2,4-dichloro-phenyl)-3-(2,4-difluoro-benzyl)-3H-imidazol-4-yl]-methylamine]  4.6 µM
19. NCc1c(-c2ccc(Cl)cc2Cl)ncn1CCc1ccc(F)cc1 [55b, C-{5-(2,4-Dichloro-phenyl)-3-[2-(4-fluoro-phenyl)-ethyl]-3H-imidazol-4-yl}-methylamine]  3.7 µM
20. NCc1c(-c2ccc(Cl)cc2Cl)ncn1Cc1cccc(Cl)c1Cl [46b, C-[3-(2,3-Dichloro-benzyl)-5-(2,4-dichloro-phenyl)-3H-imidazol-4-yl]-methylamine]  2.8 µM
21. CCCCCCn1cnc(-c2ccc(Cl)cc2Cl)c1CN [84b, C-[5-(2,4-Dichloro-phenyl)-3-hexyl-3H-imidazol-4-yl]-methylamine]  1 µM

Same assay, conditions: tested directly following parallel synthesis, without purification; read-out: IC50 DP4

In order of rising IC50:
1. NCc1c(-c2ccc(Cl)cc2Cl)ncn1Cc1ccc(F)c(F)c1 [Example 49a, C-[5-(2,4-Dichloro-phenyl)-3-(3,4-difluoro-benzyl)-3H-imid-azol-4-yl]-methyl-amine]  0.1 µM
2. NCc1c(-c2ccc(Cl)cc2Cl)ncn1Cc1ccccc1Cl [Example 34a, C-[3-(2-Chloro-benzyl)-5-(2,4-di-chloro-phenyl)-3H-imid-azol-4-yl]-methyl-amine]  1 µM
3. NCc1c(-c2ccc(Cl)cc2Cl)ncn1Cc1cc(F)ccc1F [Example 61a, C-[5-(2,4-Dichloro-phenyl)-3-(2,5-difluoro-benzyl)-3H-imid-azol-4-yl]-methyl-amine]  1.9 µM
4. NCc1c(-c2ccc(Cl)cc2Cl)ncn1Cc1c(Cl)cccc1Cl [Example 60a, C-[3-(2,6-Dichloro-benzyl)-5-(2,4-dichloro-phenyl)-3H-imid-azol-4-yl]-methyl-amine]  2.8 µM
5. Cc1ccc(Cn2cnc(-c3ccc(Cl)cc3Cl)c2CN)cc1 [Example 56a, C-[5-(2,4-Dichloro-phenyl)-3-(4-methyl-benzyl)-3H-imid-azol-4-yl]-methyl-amine]  2.8 µM
6. NCc1c(-c2ccc(F)cc2Cl)ncn1Cc1ccsc1 [Example 11a, C-[5-(2-Chloro-4-fluoro-phenyl)-3-thiophen-3-ylmethyl-3H-imidazol-4-yl]-methylamine]  4.6 µM
7. NCc1c(-c2ccc(F)cc2Cl)ncn1Cc1ccccc1OC(F)(F)F [Example 23a, C-[5-(2-Chloro-4-fluoro-phenyl)-3-(2-tri-fluoromethoxy-benzyl)-3H-imid-azl-4-yl]-methyl-amine]  5.5 µM
8. NCc1c(-c2ccc(F)cc2Cl)ncn1Cc1cccnc1 [Example 31a, C-[5-(2-Chloro-4-fluoro-phenyl)-3-pyri-din-3-ylmethyl-3H-imid-azol-4-yl]-methyl-amine]  5.5 µM
9. NCc1c(-c2ccc(F)cc2F)ncn1Cc1ccco1 [Example 72a, C-[5-(2,4-Difluoro-phenyl)-3-furan-2-ylmethyl-3H-imidazol-4-yl]-methylamine]  11.8 µM
10. Cc1ccccc1Cn1cnc(-c2ccc(F)cc2Cl)c1CN [Example 14a, C-[5-(2-Chloro-4-fluoro-phenyl)-3-(2-methyl-benzyl)-3H-imid-azol-4-yl]-methyl-amine]  19.9 µM
11. NCc1c(-c2ccc(F)cc2Cl)ncn1Cc1ccccn1 [Example 30a, C-[5-(2-Chloro-4-fluoro-phenyl)-3-pyri-din-2-yl-methyl-3H-imid-azol-4-yl]-methyl-amine]  25.3 µM
12. CCn1cnc(-c2ccc(Cl)cc2Cl)c1CN [Example 59a, C-[5-(2,4-Dichloro-phenyl)-3-eth-yl-3H-imid-azol-4-yl]-methyl-amine]  25.3 µM
13. Cn1cccc1Cn1cnc(-c2ccc(Cl)cc2Cl)c1CN [Example 64a, C-[5-(2,4-Dichloro-phenyl)-3-(1-methyl-1H-pyrrol-2-yl-methyl)-3H-imid-azol-4-yl]-methyl-amine]  27.1 µM
14. NCc1c(-c2ccc(Cl)cc2Cl)ncn1Cc1cc(Br)ccc1F [Example 44a, C-[3-(5-Bromo-2-fluoro-benzyl)-5-(2,4-dichloro-phenyl)-3H-imid-azol-4-yl]-methyl-amine]  30.7 µM
15. NCc1c(-c2ccc(F)cc2Cl)ncn1Cc1ccccc1C(F)(F)F [Example 19a, C-[5-(2-Chloro-4-fluoro-phenyl)-3-(2-tri-fluorometh-yl-benzyl)-3H-imid-azol-4-yl]-methyl-amine]  35.2 µM
16. NCc1c(-c2ccc(F)cc2Cl)ncn1Cc1ccc(Cl)cc1 [Example 22a, C-[3-(4-Chloro-benzyl)-5-(2-chloro-4-fluoro-phenyl)-3H-imid-azol-4-yl]-methyl-amine]  37.9 µM
17. NCc1c(-c2ccc(F)cc2F)ncn1Cc1ccc(F)cc1F [Example 76a, C-[3-(2,4-Difluoro-benzyl)-5-(2,4-difluoro-phenyl)-3H-imid-azol-4-yl]-methyl-amine]  40.6 µM
18. Cc1ccc(-c2ncn(Cc3ccsc3)c2CN)c(C)c1 [Example 67a, C-[5-(2,4-Dimethyl-phenyl)-3-thio-phen-3-yl-methyl-3H-imid-azol-4-yl]-methyl-amine]  42.4 µM
